The values that follow come from patent US20240115672A1, “TREATMENT OF AN IOP CONDITION” (THE RESEARCH FOUNDATION FOR THE STATE UNIVERSITY OF NEW YORK, priority 2021, published 2024).

Assay [1] relates to MMP-2, MMP-9, MMP-13 expression in HTM cells. Briefly: MMP expression in HTM cells (Examples 17, 18). The format is cell-based, human. The note with it: for MMP-9 expression compared to PA+NE-tPA treated cells: p<0.0001.
The subject of assay [2] is Mmp-2, Mmp-9, Mmp-13 mRNA in angle ring tissues. The experiment in a line: Mmp expression in Tg-MYOCY437H angle ring tissues (Example 19). Type of assay: in vivo, mouse. The note with it: 5 days treatment. As for the experimental part:
Eyes were flash frozen in liquid nitrogen after outflow facility determination and subsequently dissected on ice to obtain the angle ring tissues containing the TM, as previously described (Kumar, Shah et al. 2013). Dissected TM tissues were immersed in RNAlater solution (Invitrogen, Waltham, MA, USA) and then snap-frozen and stored at −80° C. until RNA extraction. Tissue collected was pooled (four eyes) and homogenized in TRIzol reagent for RNA isolation, per manufacturer's instructions (Life Technologies, Carlsbad, CA, USA). RNA concentration was determined with a Nanodrop ND-1000 Spectrophotometer (Thermo Scientific, Wilmington, DE, USA). cDNA was synthesized by using High-Capacity cDNA
Reverse Transcription Kit (Applied Biosystems, Waltham, MA, USA) according to manufacturer's protocol. Quantitative real-time PCR (qRT-PCR) was performed by using Green-2-Go qPCR Mastermix-ROX (Bio Basic, Amherst, NY, USA) on a QuantStudio 6 Flex thermal cycler (Applied Biosystems, Carlsbad, CA, USA). mRNA expression of Plat, Plait, Pai-1, Mmp-2, Mmp-9, and Mmp-13 in angle ring tissues was determined. Primers were designed by using Primer-BLAST (haps://www.ncbi.nlm.nih.gov/tools/primer-blast/index.cgi?LINK_LOC=BlastHome; in the public domain); primer sequences are listed in Table 2. Primer specificity was confirmed by agarose gel electrophoresis and multiple-sized amplification products were absent on inspection of melting curves. Target mRNA expression values were normalized to the expression levels of Rps11 (ribosomal protein S11). The relative fold change was calculated by using the ΔΔCt method (Hu, Wang et al. 2015). Outliers identified via the Thompson Tau test were removed from analysis.

The next assay deals with Tg-MYOCY437H mice. Particulars: systemic and topical administration; cited from earlier work.
For the next assay, the system named is sheep. Briefly: Sheep given tPA or arginine concurrently with prednisolone (Example 3 Protocol 2, Example 4). Type of assay: in vivo. The note with it: 4.23 mg arginine intravitreal plus prednisolone (OS) compared to tPA and prednisolone (OD). As for the experimental part:
Protocol 2. In a second set of experiments, arginine was added to the BSS vehicle administered to the left eye to control for the relatively high concentration of the amino acid in the commercially available tPA lyophilisate. In these experiments all right eyes received 0.1 mg tPA, which concomitantly delivered 4.23 mg of arginine into the vitreous, and the left eye received this same amount of arginine, absent the tPA. On Day 1, prednisolone treatments were also begun simultaneously on both eyes.
Methods. In this experiment, the inventor sought to detect the effects of tPA treatment on prevention of steroid-induced IOP elevation. In 4 sheep tPA was injected in one eye (100 μg) and they were started on prednisolone acetate three times a day in both eyes. Animals were monitored for 11 days on continuous treatment.

The test system of assay [3] is sheep of the Coriedale breed. Briefly: IOP in prednisolone-treated sheep after tPA injection into the anterior chamber (Example 9). Type of assay: in vivo. As for the experimental part:
Methods. Lyophilized IPA, obtained as Acetilyse® from Boehringer Ingelheim S.A. (Buenos Aires) containing arginine. was used. Five sheep of the Coriedale breed were selected. Initially all eyes received instillation of 1% prednisolone 3 times/day for 10 days to elevate their IOP from 10 mm Hg to about 23 mm Hg. Then, 0.0001 μg was injected into one of the eyes and its effect was followed for up to 55:00 hrs while the instillation of prednisolone continued in both eyes. The same protocol was implemented for the 0.001 and 0.01 μg amounts (after extended washout) in the contra lateral eyes. Arginine, which is associated with 0.01 ug tPA, was injected alone and had no effect.

Turning to `C[C@]12N[C@H](Cc3ccccc31)c1ccccc12` [MK-801], the “MMP-9 expression compared to PA+NE-tPA treated cells” value in assay [1] (inhibitor added to PA+NE-tPA) was “significantly lower”. In assay [1] (inhibitor added to PA+NE-tPA, p<0.05), the “MMP-2 expression compared to PA+NE-tPA treatment” value is “significant reduction”.

For `O=C([O-])CCCc1ccccc1.[Na+]` [PBA, sodium phenylbutarate], in assay [2], the “Mmp-9 expression compared to BSA treated eyes” value is “higher” and the “Mmp-13 expression compared to BSA treated eyes” value is reported as “did not show any difference”. Moreover, the “Mmp-2 expression compared to BSA treated eyes” value in assay [2] (p>0.05) is “no significant difference”. In addition, the “effect on IOP” value with Tg-MYOCY437H mice is listed as “effective in reducing IOP”.

Consider `N=C(N)NCCC[C@H](N)C(=O)O` [arginine], for which the “effect of arginine alone” value with sheep was “failed to reduce outflow facility”. In addition, in assay [3] (amount associated with 0.01 ug tPA), the “effect of arginine injected alone” value is reported as “no effect”.

Consider `CC(=O)OCC(=O)[C@@]1(O)CC[C@H]2[C@@H]3CCC4=CC(=O)C=C[C@]4(C)[C@H]3[C@@H](O)C[C@@]21C` [prednisolone, prednisolone acetate], for which the IOP after prednisolone entry in assay [3] (1% prednisolone 3 times/day for 10 days, from 10 mm Hg) is “about 23 mm Hg”. The “MMP-13 expression (FIG. 17D)” value in assay [1] (PA treated HTM cells) was “below detection limits”.

B1: RAP: inhibitor of LRP1 (protein, UniProt P30533 35-357, looked up)
Alpha-2-macroglobulin …: YSREKNQPKPSPKRESGEEFRMEKLNQLWEKAQRLHLPPVRLAELHADLKIQERDELAWKKLKLDGLDEDGEKEARLIRNLNVILAKYGLDGKKDARQVTSNSLSGTQEDGLDDPRLEKLWHKAKTSGKFSGEELDKLWREFLHHKEKVHEYNVLLETLSRTEEIHENVISPSDLSDIKGSVLHSRHTELKEKLRSINQGLDRLRRVSHQGYSTEAEFEEPRVIDLWDLAQSANLTDKELEAFREELKHFEAKIEKHNHYQKQLEIAHEKLRHAESVGDGERVSRSREKHALLEGRTKELGYTVKKHLQDLSGRISRARHNEL
In the case of B1, the “MMP-9 expression compared to PA+NE-tPA treated cells” value in assay [1] (inhibitor added to PA+NE-tPA) is given as “significantly lower”.
